Measured values from the supplement of paper PMC10627819.

Tests used:
S. pneumoniae D39V [1] = assay: fitness (endpoint OD595 vs no drug) (fraction); higher = more growth
How it was run: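 At 37 °C, bacteria in TSB, LB Lennox or CY were grown in 384-well plates from a starting OD595 of 0.01. OD595 was measured every 30 min for 14 h, with the first reading used as background. Fitness is the optical density at the switch to stationary phase as a fraction of the robust mean of no-drug control wells, capped at 1.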

B. subtilis 168 = assay: Bliss interaction score (quartile over a dose matrix) (fitness difference); higher = more antagonism (negative = synergy)
How it was run: (§1)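 The Bliss score was calculated by subtracting the expected fitness, the product of single-drug values, from the observed fitness. OD595 at entry into stationary phase, over the plate's robust no-drug mean and capped at 1, served as the fitness readout. Single-drug values were inferred from combination data, and scores are summarised by quartiles across technical, biological and donor/recipient replicates.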

S. aureus DSM 20231 = assay: as above
How it was run: as §1

S. aureus Newman = assay: as above
How it was run: as §1

S. pneumoniae D39V [2] = assay: as above
How it was run: as §1
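Wherever Bliss interaction score (quartile over a dose matrix) is given: first quartile when negative (synergy) and third quartile when positive (antagonism).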

C[C@H]1c2cccc(O)c2C(=O)C2=C(O)[C@]3(O)C(=O)C(C(N)=O)=C(O)[C@@H](N(C)C)[C@@H]3[C@@H](O)[C@@H]21 [Doxycycline] + C/C(=C\C(=O)OCCCCCCCCC(=O)O)C[C@@H]1OC[C@H](C[C@@H]2O[C@H]2[C@@H](C)[C@H](C)O)[C@@H](O)[C@H]1O [Pseudomonic acid]
fitness, S. pneumoniae D39V [1], one replicate
Conditions | partner 0.03 µg/mL | partner 0.06 µg/mL | partner 0.12 µg/mL
first compound 0.003875 µg/mL | 0.973 | 0.887 | 0.585
first compound 0.00775 µg/mL | 0.943 | 0.839 | 0.614

fitness, S. pneumoniae D39V [1]
Conditions | first compound 0.0155 µg/mL | first compound 0.031 µg/mL | first compound 0.062 µg/mL
partner 0.03 µg/mL | 0.993 | 0.937 | 0.821
partner 0.06 µg/mL | 0.878 | 0.845 | 0.857
partner 0.12 µg/mL | 0.604 | 0.608 | 0.562

Conditions | Bliss interaction score
B. subtilis 168 | -0.0363
S. aureus DSM 20231 | -0.0104
S. aureus Newman | -0.0168
S. pneumoniae D39V [2] | 0.0875

C[C@H]1c2cccc(O)c2C(=O)C2=C(O)[C@]3(O)C(=O)C(C(N)=O)=C(O)[C@@H](N(C)C)[C@@H]3[C@@H](O)[C@@H]21 [Doxycycline] + CN[C@H](CC(C)C)C(=O)N[C@H]1C(=O)N[C@@H](CC(N)=O)C(=O)N[C@H]2C(=O)N[C@H]3C(=O)N[C@H](C(=O)N[C@H](C(=O)O)c4cc(O)cc(O)c4-c4cc3ccc4O)[C@H](O)c3ccc(c(Cl)c3)Oc3cc2cc(c3O[C@@H]2O[C@H](CO)[C@@H](O)[C@H](O)[C@H]2O[C@H]2C[C@](C)(N)[C@H](O)[C@H](C)O2)Oc2ccc(cc2Cl)[C@H]1O [Vancomycin]
fitness, S. pneumoniae D39V [1], one replicate
Conditions | first compound 0.003875 µg/mL | first compound 0.00775 µg/mL | first compound 0.031 µg/mL | first compound 0.062 µg/mL
partner 0.125 µg/mL | 0.882 | 0.989 | – | –
partner 0.25 µg/mL | 0.29 | 0.571 | 0.753 | 0.629
partner 0.5 µg/mL | 0.0216 | 0.0253 | 0.128 | 0.0893

fitness, S. pneumoniae D39V [1]
Conditions | partner 0.03125 µg/mL | partner 0.0625 µg/mL | partner 0.125 µg/mL | partner 0.25 µg/mL | partner 0.5 µg/mL
first compound 0.0155 µg/mL | 0.903 | 0.876 | 0.913 | 0.802 | 0.105
first compound 0.031 µg/mL | 0.838 | 0.79 | 0.767 | – | –
first compound 0.062 µg/mL | 0.84 | 0.783 | – | – | –

Conditions | Bliss interaction score
B. subtilis 168 | 0.0535
S. aureus DSM 20231 | 0.0785
S. aureus Newman | 0.0371
S. pneumoniae D39V [2] | 0.101

C[C@H]1c2cccc(O)c2C(=O)C2=C(O)[C@]3(O)C(=O)C(C(N)=O)=C(O)[C@@H](N(C)C)[C@@H]3[C@@H](O)[C@@H]21 [Doxycycline] + CO[C@H]1/C=C/O[C@@]2(C)Oc3c(C)c(O)c4c(O)c(c(/C=N/N5CCN(C)CC5)c(O)c4c3C2=O)NC(=O)/C(C)=C\C=C\[C@H](C)[C@H](O)[C@@H](C)[C@@H](O)[C@@H](C)[C@H](OC(C)=O)[C@@H]1C [Rifampicin]
S. pneumoniae D39V [1], one replicate
Conditions | fitness
first compound 0.003875 µg/mL, partner 0.05 µg/mL | 0.802
first compound 0.003875 µg/mL, partner 0.1 µg/mL | 0.36
first compound 0.003875 µg/mL, partner 0.2 µg/mL | 0.109
first compound 0.00775 µg/mL, partner 0.05 µg/mL | 0.864
first compound 0.00775 µg/mL, partner 0.1 µg/mL | 0.494
first compound 0.00775 µg/mL, partner 0.2 µg/mL | 0.207
first compound 0.0155 µg/mL, partner 0.025 µg/mL | 0.912
first compound 0.031 µg/mL, partner 0.025 µg/mL | 0.927
first compound 0.062 µg/mL, partner 0.025 µg/mL | 0.825

fitness, S. pneumoniae D39V [1]
Conditions | first compound 0.0155 µg/mL | first compound 0.031 µg/mL | first compound 0.062 µg/mL
partner 0.05 µg/mL | 0.863 | 0.861 | –
partner 0.1 µg/mL | – | – | 0.307
partner 0.2 µg/mL | 0.199 | 0.113 | 0.0818

Conditions | Bliss interaction score
B. subtilis 168 | -0.253
S. aureus DSM 20231 | -0.0196
S. aureus Newman | -0.0119
S. pneumoniae D39V [2] | -0.0813
